Laboratory results reported in patent publication US8916540B2, “Antibiotic compositions and related screening methods” (Academia Sinica, priority 2008, dated 2014).
Where two headings read alike, the source gives them in different places.

Columns and labels:
Neisseria gonorrhoeae = settings: literature citation 28; cited from earlier work
Staphylococcus aureus [1] = settings: literature citation 10; cited from earlier work
Salmonella enterica = assay: Minimal inhibitory concentration (MIC) determination; format: cell-based
Enterococcus faecium = settings: literature citation 10; cited from earlier work
[2] = target: PBP2a from Enterococcus faecalis; assay: Fluorescence anisotropy direct binding assay; settings: FA direct binding, 100 nM F-Moe, 10 mM Tris pH 8.0, 100 mM NaCl; read-out: FA_KD
Protocol: Fluorescence anisotropy measurements were carried out in triplicates in the wells of 384-well plates using a laser fluorimetry equipped with a 488 nm laser (IsoCyte, Blueshift Biotech, Inc., Sunnyvale, Calif., USA). Various buffers, salts, pH values, and divalent cations (Ca^++, Mg^++, Co^++) were optimized for fluorescence anisotropy measurements. […] The scanning focus was above the plate bottom to avoid detection interferences. Data analysis was performed with the proprietary software, BlueImage (Blueshift Biotech Inc). Fluorescence anisotropy values (A) were calculated using the equation: A=(/∥−G*/⊥)/(/∥+2G*/⊥), where /∥ is the fluorescence intensity of emitted light parallel to excitation, /⊥ is the fluorescence intensity of emitted light perpendicular to excitation, and G is the […] that corrects for instrument bias. The G factor is experimentally determined for each run using the probe-only well as the basal an isotropy.
For direct binding assay, the initial condition contained 40 μl of 100 nM F-Moe in 10 mM Tris, pH 8.0, 100 mM NaCl. After a small volume of PBP stock was added, the anisotropy change was measured after a 5-minute equilibration. We assume that the direct titration follows a simple binding equilibrium between Ligand (L) and Receptor (R)
[formula] […]

Klebsiella pneumoniae = assay: Minimal inhibitory concentration (MIC) determination; format: cell-based
Bacillus subtilis [3] = settings: literature citation 30; cited from earlier work
Shigella flexneri [4] = settings: literature citation 28; cited from earlier work
Citrobacter freundii = settings: literature citation 28; cited from earlier work
Enterococcus faecalis = assay: Minimal inhibitory concentration (MIC) determination; format: cell-based
Protocol: (§1) The minimal inhibitory concentration (MIC) of tested compounds was determined following the NCCLS standard. The experiments were conducted in 96-well microtiter plates using two-fold dilutions in Muller-Hilton broth with (Streptococcus pneumonia) or without blood (Bacillus subtilis, Enterococcus faecalis, Staphylococcus aureus). Exponentially growing cells at 5×10^5 cells/ml were incubated with test compounds at various concentrations.

Bacillus subtilis [5] = assay: as above; format: cell-based
Protocol: as §1

Staphylococcus aureus [6] = assay: as above; format: cell-based
Protocol: as §1

Streptococcus pneumoniae = assay: as above; format: cell-based
Protocol: as §1

[7] = target: PBP2a from Enterococcus faecalis; assay: SPR moenomycin binding to immobilized full-length PBP; settings: steady-state affinity, average values, read-out: SPR_KD
Escherichia coli = assay: Minimal inhibitory concentration (MIC) determination; format: cell-based
Shigella flexneri [8] = assay: as above; format: cell-based

Moenomycin A [Compound 1]
Reported values MIC (Neisseria gonorrhoeae): 1.69 µM
Reported values MIC (Staphylococcus aureus [1]): 0.02 to 0.12 µM
MIC (Salmonella enterica): 160 µM
Reported values MIC (Enterococcus faecium): >40.5 µM
Kd [2]: 276 ± 14 nM
MIC (Klebsiella pneumoniae): 80 µM
Reported values MIC (Bacillus subtilis [3]): 0.07 to 0.43 µM
Reported values MIC (Shigella flexneri [4]): 27.5 to 110 µM
Reported values MIC (Citrobacter freundii): 352 µM
MIC (Enterococcus faecalis; E. faecalis ATCC29212, Muller-Hilton broth, 18 h to 24 h, 37° C., read-out: MIC E. faecalis (ATCC29212)): 0.04 µM
MIC (Enterococcus faecalis; Enterococcus faecalis (Table 1)): 0.075 to 0.3 µM
MIC (Bacillus subtilis [5]; B. subtilis ATCC23857, Muller-Hilton broth, 18 h to 24 h, 37° C., read-out: MIC B. subtilis (ATCC23857)): 0.33 µM
MIC (Bacillus subtilis [5]; Bacillus subtilis (Table 1)): 0.3 to 0.6 µM
MIC (Staphylococcus aureus [6]; S. aureus ATCC29213, Muller-Hilton broth, 18 h to 24 h, 37° C., read-out: MIC S. aureus (ATCC29213)): <0.01 µM
MIC (Staphylococcus aureus [6]; Staphylococcus aureus (Table 1)): 0.075 µM
MIC (Streptococcus pneumoniae; S. pneumoniae ATCC49619, Muller-Hilton broth with blood, 18 h to 24 h, 37° C., read-out: MIC S. pneumoniae (ATCC49619)): 0.33 µM
MIC (Streptococcus pneumoniae; Streptococcus pneumoniae (Table 1)): 0.625 µM
Kd [7]: 619 nM
MIC (Escherichia coli): 80 µM
MIC (Shigella flexneri [8]): 40 µM
